Tests used:
yeast strain BY4742 = experiment: Detection of leucine by bioluminescence of leucine-auxotrophic BY4742 carrying pRS426-Lux (Example 4); type: cell-based, Saccharomyces cerevisiae; settings: CSM-Leu-URA medium, leucine added after 5 h incubation, FIG. 4
Experimental: (§1) D-Luciferin sodium salt (Carl Roth, Germany) was dissolved in 0.1 M Na2 HPO4-citrate buffer pH 5 to a final luciferin concentration of 1 mM. 100 μl of an overnight yeast culture was adjusted depending on the experimental question to a suitable starting OD600 of around 1.0 or less in CSM medium. 100 μl of yeast cells, 25 μl of a test solution (e.g., amino acid), and 25 μl of 1 mM luciferin solution were added in this order to a well of a black 96-well microtiter plate with a transparent bottom (Microplate, 96 well, PS, F-Bottom (Chimney Well) μClear®, Black, Med. Binding; Greiner bio-one, Germany) for a measurement. Measurements were performed using a Tristar2S Platereader (Berthold, Germany) at a constant temperature of 28° C.
The yeast strain BY4742 used by the inventors has several auxotrophies, including leucine auxotrophy, which makes this strain useful for leucine detection. For this purpose, the strain was grown overnight in CSM-URA medium. […] After 5 h of incubation, a defined amount of leucine was added and luminescence was subsequently measured (FIG. 4). […] The relationship between available leucine and measured bioluminescence behaves in a concentration-dependent manner within a certain concentration range, so that the leucine concentration can be correlated and measured with the bioluminescence.

[1] = tested on: S. cerevisiae strain BY4742; experiment: Luminescence comparison of bacterial luciferase construct with Firefly luciferase in BY4742 (Example 2); type: cell-based, Saccharomyces cerevisiae
Experimental: as §1
The luciferase from Photinus pyralis was chosen for comparison because it is most commonly used in bioanalysis (see FIG. 6).
After both plasmids have the same genetic requirements, such as FBA1 promoter and terminator, the same vector backbone and were also transformed into BY4742, both plasmids could be directly compared. The experiment was performed twice with three technical replicates each time. The cultures were grown overnight at 28° C. and were each diluted with 50 μl of fresh medium (YPD medium). For the produced prototype (nucleic acid according to the invention, SEQ ID NO: 7), water was added instead of 50 μl of the luciferin solution (2 mM final concentration).
The luminescence of the Firefly luciferase is about 100,000 RLU. In contrast, the […]. After 5.4 h, only a low luminescence of 6893 can be measured (see FIG. 2D). The CSM-URA plates were photographed in daylight (FIG. 2A) and in complete darkness (FIG. 2B) by a commercial photographic camera. The naked eye was also able to perceive the light produced by the yeasts.

CC(C)C[C@H](N)C(=O)O [leucine]
leucine concentration from which organisms grow and light signal increases regardless of concentration (yeast strain BY4742): > 49 mg/L
leucine concentration with limiting effect on cell metabolism and maximum possible bioluminescence (yeast strain BY4742): less than 20 mg/L

Firefly luciferase: plasmid encoding Photinus pyralis luciferase under the FBA1 promoter and terminator, same pRS426 backbone
initial luminescence ([1]; BY4742, FBA1 promoter/terminator, YPD, luciferin 2 mM added only for Firefly, FIG. 2D): 52,475 RLU
luminescence after 5.4 h ([1]; BY4742, FIG. 2D, luciferin added only for Firefly): 6893 RLU
luminescence after 1.7 h ([1]; BY4742, luciferin 2 mM final, FIG. 2D): 19,143 RLU

Reference: patent US12644104B2, “Detection of environmental influences by bioluminescence” (priority 2020, dated 2026)
